Where no end group is shown, it is not given here. [ ]: non-standard residue; d: D form. pY = N[C@@H](Cc1ccc(OP(=O)(O)O)cc1)C(=O)O
What was measured:
[1] = tested on: HepG2 cells expressing IR-GFP WT; experiment: insulin-activated IR endocytosis in HepG2 cells expressing IR-GFP WT (immunofluorescence, PM/IC ratio); type: cell-based; conditions: serum starved 14 h, inhibitor 2 h, then 100 nM insulin 20 min; BMS536924 2 μM, U0126 40 μM, SHP099 40 μM, AKT inhibitor VIII 5 μM, BI2536 200 nM, Reversine 1 μM
Experimental: (FIG. 2A) HepG2 cells expressing IR-GFP WT were starved, treated with the indicated inhibitors for 2 h, treated without or with 100 nM insulin for 20 min, and stained with anti-GFP (IR; green) and DAPI (blue). […] Quantification of the ratios of PM and IC IR-GFP signals of cells was shown (mean±SD; *p<0.0001).
To test whether the MAPK pathway and SHP2 might regulate the IRS1/2-AP2 interaction and IR endocytosis through modulating IRS1/2 phosphorylation patterns, the effects of inhibiting SHP2 or the MAPK pathway on insulin-activated IR endocytosis were examined (FIG. 2A and FIG. 7A).
For testing the effects of kinase inhibitors on IR endocytosis, the cells were serum starved for 14 h and inhibitors were added at 2 h before insulin treatment.

[2] = tested on: HepG2 cells expressing IR-GFP mutants; experiment: cellular localization of IR-GFP mutants in HepG2 cells after inhibitors; type: cell-based; conditions: starved 14 h, inhibitors 4 h, no insulin; for PM levels of Class II IR mutants: R1020Q, V1054M, A1075D, V1086E, I1143T
Excerpt: FIGS. 4A-E. Dysregulation of IR endocytosis as a potential contributing factor to human insulin resistance syndromes. (FIG. 4A) Representative images of liver specimens from human non-diabetes and diabetes patients stained with DAPI (blue) and anti-IR (red) and anti-ZO-1 (green) antibodies. Scale bars, 40 μm. (FIG. 4B) Quantification of the percentage of cells with positive IR PM signals in liver specimens in FIG. 4A (mean±SD; *p<0.0001). (FIG. 4C) HepG2 cells stably expressing IR-GFP R1020Q, V1054M, A1075D, V1086E, or I1143T were serum starved and stained with anti-GFP and anti-RAB7 antibodies. Scale bar, 5 μm. (FIG. 4D) Quantification of the ratios of PM and IC IR-GFP signals of cells in FIG. 4C (mean±SD; *p<0.0001). (FIG. 4E) Targeting feedback regulation of IR endocytosis for diabetes treatment. Left panel depicts the feedback regulation of IR endocytosis by ERK1/2 and SHP2 during unperturbed insulin signaling.
FIGS. 9A-D. Characterization of IR mutations found in human patients. (FIG. 9A) HepG2 cells expressing IR-GFP Class I mutants (P997T, V1012M, A1055V, K1095E, R1119Q, H1157R, R1191Q, Y1361C, or R1378Q) were starved for 14 h, treated with the indicated inhibitors for 4 h, and stained with anti-GFP (IR; green) and DAPI (blue). Scale bar, 5 m. (FIG. 9B) HepG2 cells expressing IR-GFP Class II mutants (R1020Q, V1054M, A1075D, V1086E, or I1143T) were analyzed as described in FIG. 9A. (FIG. 9C) HepG2 cells expressing IR-GFP Class III mutants (A1162E or W1220L) were analyzed as described in A. (FIG. 9D) HepG2 cells expressing IR-GFP WT, R1020Q, or V1054M were serum starved for 14 h and treated with DMSO or 80 μM Dynasore for 4 h. Cell lysates were blotted with the indicated antibodies.
Mutations of IR are known to cause inherited severe insulin resistance syndromes, but the mechanisms by which these mutations affect IR function have not been systematically explored. HepG2 cell lines were generated which stably expressed IR mutants fused to GFP, and the subcellular localization of these IR-GFP proteins was examined (FIGS. 9A-C and Table 1).
There were three distinct classes of IR mutants based on their subcellular localization in the unstimulated state. Class I mutants localized to the PM. […] Thus, certain IR mutations found in human insulin resistance syndromes perturbs IR kinase regulation and causes premature IR endocytosis.
Cellular localization of IR mutants was examined after inhibiting the SHP2 or MAPK pathways (FIGS. 4C-D, and FIGS. 9A-C).
Indirect immunofluorescence microscopy was performed on cells grown on coverslips and fixed in cold methanol at −20° C. for 10 min. The fixed cells were incubated with PBS for 30 min and 3% BSA in 0.1% PBST for 1 h, and then treated with diluted antibodies in 0.3% BSA in 0.1% PBST at 4° C. overnight. After being washed, cells were incubated with fluorescent secondary antibodies and mounted on microscope slides in ProLong Gold Antifade reagent with DAPI (Invitrogen). Images of fixed cells were acquired as a series of 0.4 m stacks with a DeltaVision® system (Applied Precision®, Issaquah, Wash.). Raw images were deconvolved using the iterative algorithm implemented in the softWoRx® software (Applied Precision®, Issaquash, Wash.). The central section of a 0.4 μm z-stack containing 3 contiguous focal planes was used for quantification. The cell edges were defined with Image J. The whole cell signal intensity (WC) and intracellular signal intensity (IC) were measured. The plasma membrane signal intensity (PM) was calculated by subtracting IC from WC. Identical exposure times and magnifications were used for all comparative analyses.

[3] = biological target: T1, AP2M1 (residues 160-435) (Homo sapiens, UniProt Q96CW1); experiment: in vitro peptide pull-down of AP2M1 with IRS1 peptides; type: binding; conditions: peptide beads pull-down, SDS-PAGE, Coomassie
T1 construct: The AP2M1 fragment (residues 160-435) was cloned into a modified pET28a; His6 (N, cleaved yes); made in house; host or cells: E. coli BL21(DE3)
T1 sequence (Q96CW1 160-435): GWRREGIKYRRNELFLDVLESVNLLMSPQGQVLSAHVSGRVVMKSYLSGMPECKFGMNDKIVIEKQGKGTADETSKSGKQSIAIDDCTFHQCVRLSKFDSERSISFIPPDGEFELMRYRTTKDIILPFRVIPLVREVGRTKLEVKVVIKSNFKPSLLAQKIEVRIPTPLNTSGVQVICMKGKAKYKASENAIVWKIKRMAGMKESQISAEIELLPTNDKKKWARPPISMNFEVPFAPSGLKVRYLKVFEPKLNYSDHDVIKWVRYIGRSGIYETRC
Experimental: FIGS. 2A-I. The MAPK pathway and SHP2 promote insulin-activated IR endocytosis. (FIG. 2A) HepG2 cells expressing IR-GFP WT were starved, treated with the indicated inhibitors for 2 h, treated without or with 100 nM insulin for 20 min, and stained with anti-GFP (IR; green) and DAPI (blue). See also FIG. 7A for representative images. Quantification of the ratios of PM and IC IR-GFP signals of cells was shown (mean±SD; *p<0.0001). (FIG. 2B) Binding of IRS1 peptides to AP2M1 (residues 160-435). Input and proteins bound to IRS1-peptide beads were analyzed by SDS-PAGE and stained with Coomassie (CBB). The relative band intensities are shown below (mean±SD; n=4 independent experiments). (FIG. 2C) ITC analysis of binding between IRS1 peptides and AP2M1 (residue 160-435), with the Kd indicated. (FIG. 2D) The IRS1 peptides were incubated with active SHP2 for the indicated durations, spotted onto membranes, and detected with the anti-pY612-IRS1 antibody. (FIG. 2E) Quantification of the relative SHP2 activity in FIG. 2D (mean±SD; n=4 independent experiments; *p<0.0001). (FIG. 2F) Model of the regulation of insulin-activated IR endocytosis by a phosphorylation switch on IRS1/2. Insulin-bound IR phosphorylates itself and IRS1/2, and activates the PI3K-AKT and MAPK pathways. SHP2 acts upstream of RAS-RAF and promotes the activation of MAPK pathway. p31^comet binds to the IR-bound MAD2 and blocks IR-AP2 association to prevent premature IR endocytosis. In feedback regulation, activated ERK1/2 phosphorylate S616 and other sites on IRS1. […]
(§1) For GST pull-down assays of in vitro translated (IVT) IRS1 proteins, beads bound to GST-AP2M1 or GST were incubated with IVT products diluted in the cell lysis buffer at 4° C. for 2 h. After incubation and washing, proteins bound to beads were eluted with the SDS loading buffer, resolved with SDS-PAGE, and detected with Coomassie staining or immunoblotting with the appropriate antibodies. […]

[4] = biological target: T1, AP2M1 (residues 160-435); experiment: isothermal titration calorimetry (ITC) of IRS1 peptides with AP2M1; type: binding; conditions: 20° C., HEPES buffer pH 7.5
Excerpt: The unphosphorylated and phosphorylated IRS1 peptides containing 612YMPMS (SEQ ID NO:7) FIG. 7B) were chemically synthesized and used for in vitro pull-down assays to examine their binding to AP2M1 (FIG. 2B). […] Thus, phosphorylation of IRS1 by ERK1/2 enhances IRS1 binding to AP2M1.
The AP2M1 fragment (residues 160-435) was cloned into a modified pET28a that introduced an N-terminal His6-tag followed by a thrombin cleavage site. The plasmid was transformed into BL21(DE3) E. coli cells. Protein expression was induced by 0.2 mM IPTG at 20° C. overnight. The harvested pellets were lysed in the lysis buffer II (20 mM Tris-HCl, pH 7.5, 500 mM NaCl, 20 mM Imidazole, 1 mM PMSF). After sonication, lysates were cleared by centrifugation at 4° C. The supernatants were filtered by […] filter and incubated with pre-equilibrated Ni2+-NTA beads (Qiagen®). […]
as §1

Molecule | insulin-activated IR endocytosis (ratio of PM and IC IR-GFP signals) [1] | PM levels of Class II IR mutants [2] | other results
O=c1[nH]c2ccccc2n1C1CCN(Cc2ccc(-c3nc4cc5[nH]cnc5cc4nc3-c3ccccc3)cc2)CC1 [AKTi, VIII] | did not affect IR endocytosis | – | –
Cc1cc(N2CCOCC2)cc2[nH]c(-c3c(NC[C@@H](O)c4cccc(Cl)c4)cc[nH]c3=O)nc12 [BMS536924] | blocked IR endocytosis | restored Class II IR mutants at the PM | –
N#CC(=C(/N)Sc1ccccc1N)/C(C#N)=C(\N)Sc1ccccc1N [Compound U0126] | blocked IR endocytosis | significantly enhanced the PM levels of Class II IR mutants | PM levels of Class I and III IR mutants [2]: not those of Class I and III IR mutants
c1nc2nc(Nc3ccc(N4CCOCC4)cc3)nc(NC3CCCCC3)c2[nH]1 [Reversine] | did not appreciably inhibit IR endocytosis | – | –
O=C(N/N=C/c1ccc(O)c(O)c1)c1cc2ccccc2cc1O [dynasore] | – | elevated the IR signal of Class II mutants at the PM | –
AMPAS: mutant IRS1 peptide CHTDDGAMPASPGVA (SEQ ID NO:10), Y612 and M615 replaced by alanine | – | – | binding to AP2M1 [3]: did not
CHTDDGYMPMSPGVA [YMPMS] | – | – | Kd [4]: 2030 nM
pYMPMS: singly phosphorylated IRS1 peptide CHTDDGpYMPMSPGVA (SEQ ID NO:12) (CHTDDG[pY]MPMSPGVA) | – | – | binding to AP2M1 [3]: abolished AP2M1 binding

Reference: patent US11426422B2, “SHP2 inhibitors and methods of use thereof” (Research Development Foundation, priority 2018, dated 2022)
